Source: PubChem BioAssay (NCI)
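Dose response: 5 concentrations. Exposure: 48 h. Format: 96-well plates. Endpoint: linear interpolation; highest concentration if not reached. At the TGI there is no net growth.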

Columns and labels:
Test in all cases: inhibition of tumour cell growth, NCI panel, 48 h
[1] = tested on: SK-OV-3 ovarian
[2] = tested on: RPMI-8226 leukemia
[3] = tested on: SK-MEL-2 melanoma
[4] = tested on: M14 melanoma
[5] = tested on: SN12C renal
[6] = tested on: SW-620 colon
[7] = tested on: UO-31 renal
[8] = tested on: ACHN renal
[9] = tested on: UACC-257 melanoma
[10] = tested on: HT29 colon
[11] = tested on: HCT-116 colon
[12] = tested on: SF-268 CNS
[13] = tested on: SF-539 CNS
[14] = tested on: UACC-62 melanoma
[15] = tested on: A549 NSCLC
[16] = tested on: NCI-H23 lung
[17] = tested on: OVCAR-8 ovarian
[18] = tested on: NCI-H522 lung
[19] = tested on: HL-60(TB) leukemia
[20] = tested on: OVCAR-3 ovarian
[21] = tested on: LOX IMVI melanoma
[22] = tested on: 786-0 renal
[23] = tested on: COLO 205 colon
[24] = tested on: A498 renal
[25] = tested on: NCI/ADR-RES ovarian
[26] = tested on: SNB-75 CNS
[27] = tested on: T-47D breast
[28] = tested on: NCI-H226 lung
[29] = tested on: OVCAR-4 ovarian
[30] = tested on: TK-10 renal
[31] = tested on: IGROV1 ovarian
[32] = tested on: RXF 393 renal
[33] = tested on: MDA-MB-435
[34] = tested on: HCT-15 colon
[35] = tested on: HS 578T breast
[36] = tested on: MCF7 breast
[37] = tested on: CAKI-1 renal
[38] = tested on: SF-295 CNS
[39] = tested on: K-562 leukemia
[40] = tested on: BT-549 breast
[41] = tested on: NCI-H460 lung
[42] = tested on: HOP-62 NSCLC
[43] = tested on: SK-MEL-28 melanoma
[44] = tested on: EKVX NSCLC
[45] = tested on: U251 CNS
[46] = tested on: PC-3 prostate
[47] = tested on: MDA-MB-231 breast
[48] = tested on: OVCAR-5 ovarian
[49] = tested on: MOLT-4 leukemia
[50] = tested on: DU-145 prostate
[51] = tested on: MALME-3M melanoma
[52] = tested on: MDA-N
[53] = tested on: SK-MEL-5 melanoma
[54] = tested on: SNB-19 CNS
[55] = tested on: KM12 colon
[56] = tested on: HCC-2998 colon
[57] = tested on: CCRF-CEM leukemia

## O=C(O)C1C2OC(C(Br)C2Br)C1C(=O)O (stereo unspecified)
[1]
  TGI: > 100 µM
[2]
  TGI: > 100 µM
[3]
  TGI: > 100 µM
[4]
  TGI: > 100 µM
[5]
  TGI: > 100 µM
[6]
  TGI: > 100 µM
[7]
  TGI: > 100 µM
[8]
  TGI: > 100 µM
[9]
  TGI: > 100 µM
[10]
  TGI: > 100 µM
[11]
  TGI: > 100 µM
[12]
  TGI: > 100 µM
[13]
  TGI: > 100 µM
[14]
  TGI: > 100 µM
[15]
  TGI: > 100 µM
[16]
  TGI: > 100 µM
[17]
  TGI: > 100 µM
[18]
  TGI: > 100 µM
[19]
  TGI: > 100 µM
[20]
  TGI: > 100 µM
[21]
  TGI: > 100 µM
[22]
  TGI: > 100 µM
[23]
  TGI: > 100 µM
[24]
  TGI: > 100 µM
[25]
  TGI: > 100 µM
[26]
  TGI: > 100 µM
[27]
  TGI: > 100 µM
[28]
  TGI: > 100 µM
[29]
  TGI: > 100 µM
[30]
  TGI: > 100 µM
[31]
  TGI: > 100 µM
[32]
  TGI: > 100 µM
[33]
  TGI: > 100 µM
[34]
  TGI: > 100 µM
[35]
  TGI: > 100 µM
[36]
  TGI: > 100 µM
[37]
  TGI: > 100 µM
[38]
  TGI: > 100 µM
[39]
  TGI: > 100 µM
[40]
  TGI: > 100 µM
[41]
  TGI: > 100 µM
[42]
  TGI: > 100 µM
[43]
  TGI: > 100 µM
[44]
  TGI: > 100 µM
[45]
  TGI: > 100 µM
[46]
  TGI: > 100 µM
[47]
  TGI: > 100 µM
[48]
  TGI: > 100 µM
[49]
  TGI: > 100 µM
[50]
  TGI: > 100 µM
[51]
  TGI: > 100 µM
[52]
  TGI: > 100 µM
[53]
  TGI: > 100 µM
[54]
  TGI: > 100 µM
[55]
  TGI: > 100 µM

## C[C@]12CC[C@H]3[C@@H](CCC4=C/C(=N/OCCN5CCCCC5)CC[C@@]43C)[C@@H]1CC[C@@H]2O
[1]
  TGI: 30.3 µM
[2]
  TGI: 24.9 µM
[3]
  TGI: 29.8 µM
[4]
  TGI: 23.8 µM
[5]
  TGI: 38.2 µM
[6]
  TGI: 32.7 µM
[7]
  TGI: 24.7 µM
[8]
  TGI: 51.6 µM
[9]
  TGI: 37.3 µM
[10]
  TGI: 15.2 µM
[11]
  TGI: > 100 µM
[15]
  TGI: 34.5 µM
[16]
  TGI: 30.4 µM
[17]
  TGI: > 100 µM
[18]
  TGI: 36.1 µM
[19]
  TGI: 8.05 µM
[20]
  TGI: 32 µM
[21]
  TGI: 57.3 µM
[56]
  TGI: 27.4 µM
[22]
  TGI: > 100 µM
[23]
  TGI: 47.3 µM
[25]
  TGI: 54.4 µM
[26]
  TGI: 22.4 µM
[27]
  TGI: > 100 µM
[28]
  TGI: 48.4 µM
[29]
  TGI: 58.9 µM
[30]
  TGI: 35 µM
[31]
  TGI: > 100 µM
[32]
  TGI: 40.8 µM
[33]
  TGI: 20.2 µM
[34]
  TGI: 21.2 µM
[36]
  TGI: 26.8 µM
[37]
  TGI: 55.3 µM
[38]
  TGI: 29.3 µM
[39]
  TGI: 7.25 µM
[40]
  TGI: 36 µM
[42]
  TGI: 29.1 µM
[43]
  TGI: 28 µM
[44]
  TGI: > 100 µM
[45]
  TGI: 27.1 µM
[57]
  TGI: 26.9 µM
[46]
  TGI: 45.6 µM
[47]
  TGI: 50.6 µM
[48]
  TGI: 40.7 µM
[49]
  TGI: 20.9 µM
[50]
  TGI: 63.5 µM
[51]
  TGI: 33.7 µM
[52]
  TGI: 34.5 µM
[53]
  TGI: 26.4 µM
[54]
  TGI: 18.5 µM
[55]
  TGI: 21.8 µM
